According to the supplement of paper PMC13380429:

Legend:
HepG2 [1] = test: drug sensitivity score (DSS) for viability; higher = more toxic; extreme values may be limits of the assay; conditions: 72 h
Vero E6 [2] = test: as above; conditions: 72 h
Calu-3 [3] = test: as above; conditions: 72 h
U2OS [4] = test: as above; conditions: 72 h
Caco-2 [5] = test: as above; conditions: 72 h
[6] = system: A549-ACE2 infected with SARS-CoV-2; test: cell count relative to DMSO; higher = less toxic; conditions: 24 h
A549-ACE2 [7] = test: drug-induced phospholipidosis relative to tamoxifen; higher = more phospholipidosis
HepG2 [8] = test: cell viability relative to DMSO; higher = less toxic; conditions: 72 h
Vero E6 [9] = test: as above; conditions: 72 h
Calu-3 [10] = test: as above; conditions: 72 h
U2OS [11] = test: as above; conditions: 72 h
Caco-2 [12] = test: as above; conditions: 72 h
[13] = system: A549-ACE2 infected with SARS-CoV-2; test: SARS-CoV-2 infection rate relative to DMSO; higher = more infection; conditions: 24 h
Vero E6 [14] = test: relative viability EC50 (midpoint between 100% and the lowest measured viability); higher = less toxic; conditions: 72 h
Calu-3 [15] = test: as above; conditions: 72 h
Caco-2 [16] = test: as above; conditions: 72 h
[17] = system: A549-ACE2 infected with SARS-CoV-2; test: morphology score (similarity to uninfected cells); higher = more like uninfected cells; conditions: 24 h
A549-ACE2 [18] = test: phospholipidosis EC50; higher = less potent phospholipidosis inducer
HepG2 [19] = test: relative viability EC50 (midpoint between 100% and the lowest measured viability); higher = less toxic; conditions: 72 h
U2OS [20] = test: as above; conditions: 72 h

CN1CCN(S(=O)(=O)c2ccc(-c3cnc(N)c(C(=O)Nc4cccnc4)n3)cc2)CC1 [AZD2858]
Conditions | drug sensitivity score | relative viability EC50 [µM]
Caco-2 [5] | 0.2 | –
Caco-2 [16] | – | > 10
Calu-3 [3] | 0 | –
Calu-3 [15] | – | > 10
HepG2 [1] | 1.7 | –
U2OS [4] | 1 | –
Vero E6 [2] | 0.6 | –
Vero E6 [14] | – | > 10

Conditions | SARS-CoV-2 infection rate, [13] [%] | cell count, [6] [%] | cell viability, Caco-2 [12] [%] | cell viability, Calu-3 [10] [%] | cell viability, HepG2 [8] [%] | cell viability, U2OS [11] [%] | cell viability, Vero E6 [9] [%] | morphology score, [17]
1 nM | – | – | 96.7 | 98.2 | 104 | 92.4 | 98.5 | –
10 nM | – | – | 96.7 | 102 | 104 | 99.5 | 93.1 | –
0.1 µM | 103 | 100 | – | – | – | – | – | -0.23
100 nM | – | – | 102 | 99.4 | 101 | 96.6 | 100 | –
0.3 µM | 100 | 96 | – | – | – | – | – | -0.27
1 µM | 86 | 107 | – | – | – | – | – | -0.14
1000 nM | – | – | 108 | 114 | 97.3 | 100 | 102 | –
3 µM | 95 | 97 | – | – | – | – | – | -0.15
10000 nM | – | – | 82.3 | 85.7 | 70.4 | 73.8 | 78.8 | –

drug-induced phospholipidosis [%], A549-ACE2 [7]
Conditions | 0.3 µM | 0.833333 µM | 3.33333 µM | 6.66667 µM | 10 µM | 30 µM
24 h | -4.95 | -12.2 | -21.2 | -22.8 | -21.3 | -18.1
48 h | 1.83 | -4.03 | -14.2 | – | – | –
72 h | 1.77 | -0.315 | -6.78 | – | – | –

Clc1ccc2c(c1)N=C(N1CCNCC1)c1ccccc1N2 [desmethylclozapine]
Conditions | drug sensitivity score | relative viability EC50 [µM]
Caco-2 [5] | 0 | –
Caco-2 [16] | – | > 10
Calu-3 [3] | 0 | –
Calu-3 [15] | – | > 10
HepG2 [1] | 0 | –
HepG2 [19] | – | > 10
U2OS [4] | 0 | –
U2OS [20] | – | > 10
Vero E6 [2] | 0 | –
Vero E6 [14] | – | > 10

Conditions | SARS-CoV-2 infection rate [%] | cell count [%] | cell viability [%] | morphology score | phospholipidosis EC50 [µM]
A549-ACE2 [18], 24 h | – | – | – | – | 6.54
A549-ACE2 [18], 48 h | – | – | – | – | 6.43
A549-ACE2 [18], 72 h | – | – | – | – | 8.34
Caco-2 [12], 1 nM | – | – | 88 | – | –
Caco-2 [12], 10 nM | – | – | 94.2 | – | –
Caco-2 [12], 100 nM | – | – | 92.9 | – | –
Caco-2 [12], 1000 nM | – | – | 98.5 | – | –
Caco-2 [12], 10000 nM | – | – | 99.1 | – | –
Calu-3 [10], 1 nM | – | – | 104 | – | –
Calu-3 [10], 10 nM | – | – | 114 | – | –
Calu-3 [10], 100 nM | – | – | 104 | – | –
Calu-3 [10], 1000 nM | – | – | 116 | – | –
Calu-3 [10], 10000 nM | – | – | 91.8 | – | –
HepG2 [8], 1 nM | – | – | 97.3 | – | –
HepG2 [8], 10 nM | – | – | 105 | – | –
HepG2 [8], 100 nM | – | – | 96.8 | – | –
HepG2 [8], 1000 nM | – | – | 104 | – | –
HepG2 [8], 10000 nM | – | – | 87.7 | – | –
U2OS [11], 1 nM | – | – | 106 | – | –
U2OS [11], 10 nM | – | – | 103 | – | –
U2OS [11], 100 nM | – | – | 100 | – | –
U2OS [11], 1000 nM | – | – | 102 | – | –
U2OS [11], 10000 nM | – | – | 97.6 | – | –
Vero E6 [9], 1 nM | – | – | 103 | – | –
Vero E6 [9], 10 nM | – | – | 107 | – | –
Vero E6 [9], 100 nM | – | – | 94.2 | – | –
Vero E6 [9], 1000 nM | – | – | 102 | – | –
Vero E6 [9], 10000 nM | – | – | 93 | – | –
[6], 0.3 µM | – | 100 | – | – | –
[6], 3 µM | – | 112 | – | – | –
[6], 10 µM | – | 115 | – | – | –
[6], 30 µM | – | 121 | – | – | –
[13], 0.3 µM | 96 | – | – | – | –
[13], 3 µM | 62 | – | – | – | –
[13], 10 µM | 28 | – | – | – | –
[13], 30 µM | 13 | – | – | – | –
[17], 0.3 µM | – | – | – | 0.09 | –
[17], 3 µM | – | – | – | 0.63 | –
[17], 10 µM | – | – | – | 0.76 | –
[17], 30 µM | – | – | – | 0.73 | –

drug-induced phospholipidosis [%], A549-ACE2 [7]
Conditions | 0.3 µM | 0.833333 µM | 3.33333 µM | 6.66667 µM | 10 µM | 30 µM
24 h | 3.47 | 2.91 | 27 | 53.9 | 65.2 | 91.3
48 h | 4.09 | 3.86 | 21.2 | 55.4 | 70.7 | 95.8
72 h | 4.5 | 2.24 | 18.3 | 49.2 | 76.1 | 116
